Experimental data from patent publication US6737383B1, “Herbicidal oxadiazolidines” (priority 1999, dated 2004).

How the values were obtained:
wheat = assay: Test B pre/postemergence wheat; type: in vivo, Triticum aestivum
In short: (§1)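 Herbicidal effect was estimated by eye on a ten-point control scale after plants spent twelve to sixteen days in a greenhouse following soil or foliar treatment. Foliar sprays targeted plants at one to four leaves; all doses were formulated in a non-phytotoxic solvent with surfactant.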

purple nutsedge = assay: Test B pre/postemergence purple nutsedge; type: in vivo, Cyperus rotundus
In short: as §1

crabgrass = assay: Test B pre/postemergence crabgrass; type: in vivo, Digitaria sanguinalis
In short: as §1

rape = assay: Test B pre/postemergence rape; type: in vivo, Brassica napus
In short: as §1

pigweed = assay: Test B pre/postemergence pigweed; type: in vivo, Amaranthus retroflexus
In short: as §1

corn = assay: Test B pre/postemergence corn; type: in vivo, Zea mays
In short: as §1

rice = assay: Test B flood test rice; type: in vivo, Oryza sativa
In short: (§2)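 Read-out is a visual response score from 0 (no effect) to 10 (complete control), assigned by comparison with untreated controls. Treatment was applied at the 2-leaf stage, and plants stayed in the greenhouse for twelve to sixteen days before scoring.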

wild oat = assay: Test B pre/postemergence wild oat; type: in vivo, Avena fatua
In short: as §1

cocklebur = assay: Test B pre/postemergence cocklebur; type: in vivo, Xanthium strumarium
In short: as §1

smallflower flatsedge = assay: Test B flood test smallflower flatsedge; type: in vivo, Cyperus difformis
In short: as §2

soybean = assay: Test B pre/postemergence soybean; type: in vivo, Glycine max
In short: as §1

velvetleaf = assay: Test B pre/postemergence velvetleaf; type: in vivo, Abutilon theophrasti
In short: as §1

duck salad = assay: Test B flood test duck salad; type: in vivo, Heteranthera limosa
In short: as §2

morningglory = assay: Test B pre/postemergence morningglory; type: in vivo, Ipomoea hederacea
In short: as §1

giant foxtail = assay: Test B pre/postemergence giant foxtail; type: in vivo, Setaria faberii
In short: as §1

bedstraw = assay: Test B pre/postemergence bedstraw; type: in vivo, Galium aparine
In short: as §1

[1] = Preemergence, Rate 62 g/ha, scale of 0 to 10 where 0 is no effect and 10 is complete control
[2] = Preemergence, Rate 125 g/ha, 0 is no effect, 10 is complete control
[3] = Preemergence, Rate 250 g/ha, scale 0 to 10, 0 is no effect, 10 is complete control
[4] = Preemergence, Rate 500 g/ha, scale 0 to 10 (0 no effect, 10 complete control)
[5] = Rate 250 g/ha, Postemergence, scale 0 to 10, 0 is no effect, 10 is complete control
[6] = Rate 500 g/ha, Postemergence, scale 0 to 10
[7] = Postemergence, Rate 125 g/ha, scale of 0 to 10 where 0 is no effect and 10 is complete control
[8] = Rate 62 g/ha, Postemergence, scale of 0 to 10 where 0 is no effect and 10 is complete control
[9] = Postemergence (flood test species), Rate 125 g/ha, scale of 0 to 10 where 0 is no effect and 10 is complete control
[10] = Rate 62 g/ha, Postemergence section, flood test species, scale of 0 to 10 where 0 is no effect and 10 is complete control
[11] = Rate 250 g/ha, Postemergence (flood test), scale 0 to 10, 0 is no effect, 10 is complete control
[12] = Rate 500 g/ha, listed under Postemergence (flood test species), scale 0 to 10

**Q.** How did the “Wheat plant response rating” value (wheat; [1]) turn out when `Cc1nsc(C)c1-n1c(=O)on(C(=O)N(c2ccc(F)cc2F)C(C)C)c1=O` [Compound 158] was run?
**A.** 0

**Q.** And the “Wheat plant response rating (0 to 10 scale)” value (wheat; [2])?
**A.** 0

**Q.** And the “Wheat plant response rating” value (wheat; [3])?
**A.** 0

**Q.** What about the “Wheat plant response rating” value (wheat; [4]) of the same molecule?
**A.** 0

**Q.** What about the “Plant response rating, Wheat” value (wheat; [5]) of the same molecule?
**A.** 0

**Q.** And the “Wheat plant response rating” value (wheat; [6])?
**A.** 0

**Q.** And the “Nutsedge plant response rating” value (purple nutsedge; [7])?
**A.** 0

**Q.** What about the “Nutsedge plant response rating” value (purple nutsedge; [1]) of the same molecule?
**A.** 0

**Q.** What about the “Nutsedge plant response rating (0 to 10 scale)” value (purple nutsedge; [2]) of the same molecule?
**A.** 0

**Q.** What about the “Nutsedge plant response rating” value (purple nutsedge; [3]) of the same molecule?
**A.** 0

**Q.** What about the “Nutsedge plant response rating” value (purple nutsedge; [4]) of the same molecule?
**A.** 0

**Q.** What about the “Nutsedge plant response rating” value (purple nutsedge; [8]) of the same molecule?
**A.** 0

**Q.** What about the “Plant response rating, Nutsedge” value (purple nutsedge; [5]) of the same molecule?
**A.** 0

**Q.** What about the “Nutsedge plant response rating” value (purple nutsedge; [6]) of the same molecule?
**A.** 0

**Q.** What about the “Crabgrass plant response rating” value (crabgrass; [7]) of the same molecule?
**A.** 0

**Q.** And the “Crabgrass plant response rating” value (crabgrass; [1])?
**A.** 3

**Q.** And the “Crabgrass plant response rating (0 to 10 scale)” value (crabgrass; [2])?
**A.** 3

**Q.** What about the “Crabgrass plant response rating” value (crabgrass; [3]) of the same molecule?
**A.** 4

**Q.** And the “Crabgrass plant response rating” value (crabgrass; [4])?
**A.** 7

**Q.** And the “Crabgrass plant response rating” value (crabgrass; [8])?
**A.** 0

**Q.** And the “Plant response rating, Crabgrass” value (crabgrass; [5])?
**A.** 3

**Q.** What about the “Crabgrass plant response rating” value (crabgrass; [6]) of the same molecule?
**A.** 4

**Q.** And the “Rape plant response rating” value (rape; [7])?
**A.** 0

**Q.** And the “Rape plant response rating” value (rape; [1])?
**A.** 0

**Q.** And the “Rape plant response rating (0 to 10 scale)” value (rape; [2])?
**A.** 0

**Q.** What about the “Rape plant response rating” value (rape; [3]) of the same molecule?
**A.** 0

**Q.** What about the “Rape plant response rating” value (rape; [4]) of the same molecule?
**A.** 0

**Q.** And the “Rape plant response rating” value (rape; [8])?
**A.** 0

**Q.** What about the “Plant response rating, Rape” value (rape; [5]) of the same molecule?
**A.** 0

**Q.** And the “Rape plant response rating” value (rape; [6])?
**A.** 0

**Q.** What about the “Redroot pigweed plant response rating” value (pigweed; [7]) of the same molecule?
**A.** 2

**Q.** And the “Redroot pigweed plant response rating” value (pigweed; [1])?
**A.** 0

**Q.** And the “Redroot pigweed plant response rating (0 to 10 scale)” value (pigweed; [2])?
**A.** 0

**Q.** And the “Redroot pigweed plant response rating” value (pigweed; [3])?
**A.** 0

**Q.** And the “Redroot pigweed plant response rating” value (pigweed; [4])?
**A.** 2

**Q.** What about the “Redroot pigweed plant response rating” value (pigweed; [8]) of the same molecule?
**A.** 0

**Q.** And the “Plant response rating, Redroot pigweed” value (pigweed; [5])?
**A.** 2

**Q.** And the “Redroot pigweed plant response rating” value (pigweed; [6])?
**A.** 4

**Q.** And the “Corn plant response rating” value (corn; [7])?
**A.** 0

**Q.** What about the “Corn plant response rating” value (corn; [1]) of the same molecule?
**A.** 0

**Q.** What about the “Corn plant response rating (0 to 10 scale)” value (corn; [2]) of the same molecule?
**A.** 0

**Q.** What about the “Corn plant response rating” value (corn; [3]) of the same molecule?
**A.** 2

**Q.** What about the “Corn plant response rating” value (corn; [4]) of the same molecule?
**A.** 2

**Q.** And the “Corn plant response rating” value (corn; [8])?
**A.** 0

**Q.** And the “Plant response rating, Corn” value (corn; [5])?
**A.** 0

**Q.** And the “Corn plant response rating” value (corn; [6])?
**A.** 0

**Q.** And the “Rice plant response rating” value (rice; [9])?
**A.** 0

**Q.** What about the “Rice plant response rating” value (rice; [10]) of the same molecule?
**A.** 0

**Q.** What about the “Plant response rating, Rice” value (rice; [11]) of the same molecule?
**A.** 0

**Q.** What about the “Rice plant response rating” value (rice; [12]) of the same molecule?
**A.** 0

**Q.** What about the “Wild oats plant response rating” value (wild oat; [1]) of the same molecule?
**A.** 0

**Q.** What about the “Wild oats plant response rating (0 to 10 scale)” value (wild oat; [2]) of the same molecule?
**A.** 0

**Q.** And the “Wild oats plant response rating” value (wild oat; [3])?
**A.** 0

**Q.** What about the “Wild oats plant response rating” value (wild oat; [4]) of the same molecule?
**A.** 2

**Q.** What about the “Plant response rating, Wild oats” value (wild oat; [5]) of the same molecule?
**A.** 0

**Q.** And the “Wild oats plant response rating” value (wild oat; [6])?
**A.** 0

**Q.** And the “Cocklebur plant response rating” value (cocklebur; [7])?
**A.** 0

**Q.** And the “Cocklebur plant response rating” value (cocklebur; [1])?
**A.** 0

**Q.** What about the “Cocklebur plant response rating (0 to 10 scale)” value (cocklebur; [2]) of the same molecule?
**A.** 0

**Q.** And the “Cocklebur plant response rating” value (cocklebur; [3])?
**A.** 0

**Q.** What about the “Cocklebur plant response rating” value (cocklebur; [4]) of the same molecule?
**A.** 0

**Q.** And the “Cocklebur plant response rating” value (cocklebur; [8])?
**A.** 0

**Q.** What about the “Plant response rating, Cocklebur” value (cocklebur; [5]) of the same molecule?
**A.** 0

**Q.** And the “Cocklebur plant response rating” value (cocklebur; [6])?
**A.** 0

**Q.** And the “S. Flatsedge plant response rating” value (smallflower flatsedge; [9])?
**A.** 0

**Q.** What about the “S. Flatsedge plant response rating” value (smallflower flatsedge; [10]) of the same molecule?
**A.** 0

**Q.** And the “Plant response rating, S. Flatsedge” value (smallflower flatsedge; [11])?
**A.** 0

**Q.** And the “S. Flatsedge plant response rating” value (smallflower flatsedge; [12])?
**A.** 0

**Q.** What about the “Soybean plant response rating” value (soybean; [7]) of the same molecule?
**A.** 3

**Q.** And the “Soybean plant response rating” value (soybean; [1])?
**A.** 0

**Q.** What about the “Soybean plant response rating (0 to 10 scale)” value (soybean; [2]) of the same molecule?
**A.** 0

**Q.** And the “Soybean plant response rating” value (soybean; [3])?
**A.** 0

**Q.** What about the “Soybean plant response rating” value (soybean; [4]) of the same molecule?
**A.** 0

**Q.** What about the “Soybean plant response rating” value (soybean; [8]) of the same molecule?
**A.** 3

**Q.** What about the “Plant response rating, Soybean” value (soybean; [5]) of the same molecule?
**A.** 4

**Q.** What about the “Soybean plant response rating” value (soybean; [6]) of the same molecule?
**A.** 5

**Q.** What about the “Velvetleaf plant response rating” value (velvetleaf; [1]) of the same molecule?
**A.** 0

**Q.** What about the “Velvetleaf plant response rating (0 to 10 scale)” value (velvetleaf; [2]) of the same molecule?
**A.** 0

**Q.** And the “Velvetleaf plant response rating” value (velvetleaf; [3])?
**A.** 0

**Q.** What about the “Velvetleaf plant response rating” value (velvetleaf; [4]) of the same molecule?
**A.** 0

**Q.** And the “Plant response rating, Velvetleaf” value (velvetleaf; [5])?
**A.** 0

**Q.** And the “Velvetleaf plant response rating” value (velvetleaf; [6])?
**A.** 0

**Q.** And the “Ducksalad plant response rating” value (duck salad; [9])?
**A.** 0

**Q.** And the “Ducksalad plant response rating” value (duck salad; [10])?
**A.** 0

**Q.** And the “Plant response rating, Ducksalad” value (duck salad; [11])?
**A.** 0

**Q.** What about the “Ducksalad plant response rating” value (duck salad; [12]) of the same molecule?
**A.** 0

**Q.** And the “Morningglory plant response rating” value (morningglory; [7])?
**A.** 2

**Q.** What about the “Morningglory plant response rating” value (morningglory; [1]) of the same molecule?
**A.** 0

**Q.** And the “Morningglory plant response rating (0 to 10 scale)” value (morningglory; [2])?
**A.** 0

**Q.** What about the “Morningglory plant response rating” value (morningglory; [3]) of the same molecule?
**A.** 1

**Q.** What about the “Morningglory plant response rating” value (morningglory; [4]) of the same molecule?
**A.** 2

**Q.** What about the “Morningglory plant response rating” value (morningglory; [8]) of the same molecule?
**A.** 0

**Q.** And the “Plant response rating, Morningglory” value (morningglory; [5])?
**A.** 2

**Q.** What about the “Morningglory plant response rating” value (morningglory; [6]) of the same molecule?
**A.** 2

**Q.** And the “Giant foxtail plant response rating” value (giant foxtail; [7])?
**A.** 0

**Q.** And the “Giant foxtail plant response rating” value (giant foxtail; [1])?
**A.** 3

**Q.** What about the “Giant foxtail plant response rating (0 to 10 scale)” value (giant foxtail; [2]) of the same molecule?
**A.** 4

**Q.** And the “Giant foxtail plant response rating” value (giant foxtail; [3])?
**A.** 7

**Q.** And the “Giant foxtail plant response rating” value (giant foxtail; [4])?
**A.** 8

**Q.** And the “Giant foxtail plant response rating” value (giant foxtail; [8])?
**A.** 0

**Q.** And the “Plant response rating, Giant foxtail” value (giant foxtail; [5])?
**A.** 4

**Q.** What about the “Giant foxtail plant response rating” value (giant foxtail; [6]) of the same molecule?
**A.** 5

**Q.** What about the “Bedstraw plant response rating” value (bedstraw; [7]) of the same molecule?
**A.** 0

**Q.** And the “Bedstraw plant response rating” value (bedstraw; [1])?
**A.** 0

**Q.** And the “Bedstraw plant response rating (0 to 10 scale)” value (bedstraw; [2])?
**A.** 0

**Q.** And the “Bedstraw plant response rating” value (bedstraw; [3])?
**A.** 0

**Q.** What about the “Bedstraw plant response rating” value (bedstraw; [4]) of the same molecule?
**A.** 0

**Q.** What about the “Bedstraw plant response rating” value (bedstraw; [8]) of the same molecule?
**A.** 0

**Q.** What about the “Plant response rating, Bedstraw” value (bedstraw; [5]) of the same molecule?
**A.** 0
